Results from patent US7569724B2, “Carbamic acid compounds comprising an amide linkage as HDAC inhibitors” (Topotarget UK Limited, priority 2000, dated 2009).
Where two headings read alike, the source gives them in different places.

Legend:
[1] = target: T1, human HDAC2 (Homo sapiens, UniProt Q92769); assay: Primary assay: deacetylase activity, recombinantly produced HDAC2; type: biochemical; settings: for IC50: recombinant HDAC2, read-out: HDAC Inhibition (IC50 unless otherwise specified) HDAC2
T1 construct: Full length human HDAC2 was subcloned; Flag (C); His6 (from pAcHLT-A vector; purified on Ni-NTA) (N); made in house; host or cells: SF9 insect cells (baculovirus)
Text: (§1) Briefly, this assay relies on the release of radioactive acetate from a radioactively labelled histone fragment by the action of HDAC enzyme. Test compounds, which inhibit HDAC, reduce the yield of radioactive acetate. Signal (e.g., scintillation counts) measured in the presence and absence of a test compound provide an indication of that compound's ability to inhibit HDAC activity. Decreased activity indicates increased inhibition by the test compound.
(§2) The histone fragment was an N-terminal sequence from histone H4, and it was labelled with radioactively labelled acetyl groups using tritiated acetylcoenzyme A (coA) in conjunction with an enzyme which is the histone acetyltransferase domain of the transcriptional coactivator p300. […] The acetylated peptide was then separated from free acetyl coA by size exclusion chromatography on Sephadex G-15 (Sigma G-15-120), using distilled H2O as the mobile phase.
(§3) After purification of the radiolabelled histone fragment, it was incubated with a source of HDAC (e.g., an extract of HeLa cells (a rich source of HDAC), recombinantly produced HDAC1 or HDAC2) and any released acetate was extracted into an organic phase and quantitatively determined using scintillation counting. By including a test compound with the source of HDAC, that compound's ability to inhibit the HDAC was determined.
(§4) Amplification of recombinant viruses was performed according to the Pharmingen Instruction Manual.
(§5) For protein production, 2×10^7 cells were infected with the appropriate recombinant virus for 3 days. Cells were then harvested and spun at 3,000 rpm for 5 minutes. They were then washed twice in PBS and resuspended in 2 pellet volumes of lysis buffer (25 mM HEPES pH 7.9, 0.1 mM EDTA, 400 mM KCl, 10% glycerol, 0.1% NP-40, 1 mM AEBSF). Resuspended cells were frozen on dry ice and thawed at 37° C. 3 times and centrifuged for 10 minutes at 14,000 rpm. […] Incubation was carried out at 4° C. for 1 hour on a rotating wheel. The slurry was then centrifuged at 500 g for 5 minutes. Beads were washed twice in 1 ml of wash buffer (25 mM HEPES pH7.9, 0.1 mM EDTA, 150 mM KCl, 10% glycerol, 0.1% NP-40, 1 mM AEBSF). Protein was eluted 3 times in 300 μl elution buffer (25 mM HEPES pH 7.9, 0.1 mM EDTA, 250 mM KCl, 10% glycerol, 0.1% NP-40, 1 mM AEBSF) containing increasing concentrations of imidazole: 0.2 M, 0.5 M and 1 M. Each elution was performed for 5 minutes at room temperature. Eluted protein was kept in 50% glycerol at −70° C.
(§6) A source of HDAC (e.g., 2 μL of crude HeLa extract, 5 μL of HDAC1 or HDAC2; in elution buffer, as above) was incubated with 3 μL of radioactively labelled peptide along with appropriate dilutions of candidate compounds (1.5 μL) in a total volume of 150 μL of buffer (20 mM Tris pH 7.4, 10% glycerol). The reaction was carried out at 37° C. for one hour, after which the reaction was stopped by adding 20 μL of 1 M HCl/0.4 M sodium acetate. […] Radioactivity was measured using a Tri-Carb 2100TR Liquid Scintillation Analyzer (Packard).
(§7) Percent activity (% activity) for each test compound was calculated as: % activity={(S^C−B)/(S^o−B)}×100 wherein S^C denotes signal measured in the presence of enzyme and the compound being tested, S^o denotes signal measured in the presence of enzyme but in the absence of the compound being tested, and B denotes the background signal measured in the absence of both enzyme and compound being tested.

[2] = test system: HDAC (HeLa cell extract); assay: Primary assay: deacetylase activity, HeLa cell extract as source of HDAC; type: biochemical, human; settings: HeLa cell extract
Outline: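 Crude HeLa extract (freeze-thaw in 60 mM TrisCl pH 8.0, 450 mM NaCl, 30% glycerol) was incubated 1 h at 37° C with a [³H]acetyl-labelled histone H4 N-terminal peptide in 20 mM Tris pH 7.4, 10% glycerol.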

[3] = target: T2, human HDAC1 (Homo sapiens, UniProt Q13547); assay: Primary assay: deacetylase activity, recombinantly produced HDAC1; type: biochemical; settings: recombinant HDAC1; read-out: HDAC Inhibition (IC50 unless otherwise specified) HDAC1
T2 construct: Full length human HDAC1 was cloned by PCR; Flag (C); His6 (from pAcHLT vector; purified on Ni-NTA) (N); made in house; host or cells: SF9 insect cells (baculovirus)
Text: as §1, §2, §3
Full length human HDAC1 was cloned by PCR using a λgt11 Jurkat cDNA library (Clontech-HL5012b). The amplified fragment was inserted into the EcoRI-Sall sites of pFlag-CTC vector (Sigma-E5394), in frame with the Flag tag. A second PCR was carried out in order to amplify a fragment containing the HDAC1 sequence fused to the Flag tag.
as §4, §5, §6, §7

[4] = test system: HeLa cells; assay: Secondary assay: cell proliferation WST-1, HeLa; type: cell-based; settings: Homo sapiens, 48 h, read-out: Cell Proliferation Inhibition WST-1 (IC50 unless otherwise specified) HeLa
Outline: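 Absorbance at 450 nm (reference 690 nm); % activity vs untreated after blank subtraction, IC50 fitted with top 100 and bottom 0.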

[5] = test system: JURKAT human T-cell line; assay: Secondary assay: cell proliferation WST-1, Jurkat; type: cell-based; settings: Homo sapiens, 48 h, read-out: Cell Proliferation Inhibition WST-1 (IC50 unless otherwise specified) Jurkat
Experimental: (§8) Compounds with HDAC inhibition activity, as determined using the primary assay, were subsequently evaluated using secondary cell-based assays. The following cell lines were used:
JURKAT—Human T-cell line (ATCC no. TIB-152).
(§9) Cells were plated in 96-well plates at 3-10×10^3 cells/well in 100 μL of culture medium. The following day, different concentrations of candidate compounds were added and the cells incubated at 37° C. for 48 h. Subsequently, 10 μL/well of WST-1 reagent was added and the cells reincubated for 1 hour. After the incubation time, absorbance was measured.
(§10) WST-1 is a tetrazolium salt which is cleaved to formazan dye by cellular enzymes. An expansion in the number of viable cells results in an increase in the overall activity of mitochondrial dehydrogenases in the sample. This augmentation in the enzyme activity leads to an increase in the amount of formazan dye formed, which directly correlates to the number of metabolically active cells in the culture. The formazan dye produced is quantified by a scanning multiwell spectrophotometer by measuring the absorbance of the dye solution at 450 nm wavelength (reference wavelength 690 nm).
(§11) Percent activity (% activity) in reducing the number of viable cells was calculated for each test compound as: % activity={(S^C−B)/(S^o−B)}×100 wherein S^C denotes signal measured in the presence of the compound being tested, S^o denotes signal measured in the absence of the compound being tested, and B denotes the background signal measured in blank wells containing medium only.
(§12) IC50 values were calculated using the software package Prism 3.0 (GraphPad software Inc., San Diego, Calif.), setting top value at 100 and bottom value at 0.

[6] = test system: K11 HPV E7 transformed human keratinocyte line; assay: Secondary assay: cell proliferation WST-1, K11; type: cell-based; settings: Homo sapiens, Keratinocyte, 48 h, read-out: Cell Proliferation Inhibition WST-1 (IC50 unless otherwise specified) K11
Experimental: as §8
K11—HPV E7 transformed human keratinocyte line provided by Pidder Jansen-Duerr, Institut für Biomedizinische Alternsforschung, Innsbruck, Austria.
as §9, §10, §11, §12

[7] = read-out: HDAC Inhibition (IC50 unless otherwise specified) HeLa

T1 sequence (Q92769 whole entry): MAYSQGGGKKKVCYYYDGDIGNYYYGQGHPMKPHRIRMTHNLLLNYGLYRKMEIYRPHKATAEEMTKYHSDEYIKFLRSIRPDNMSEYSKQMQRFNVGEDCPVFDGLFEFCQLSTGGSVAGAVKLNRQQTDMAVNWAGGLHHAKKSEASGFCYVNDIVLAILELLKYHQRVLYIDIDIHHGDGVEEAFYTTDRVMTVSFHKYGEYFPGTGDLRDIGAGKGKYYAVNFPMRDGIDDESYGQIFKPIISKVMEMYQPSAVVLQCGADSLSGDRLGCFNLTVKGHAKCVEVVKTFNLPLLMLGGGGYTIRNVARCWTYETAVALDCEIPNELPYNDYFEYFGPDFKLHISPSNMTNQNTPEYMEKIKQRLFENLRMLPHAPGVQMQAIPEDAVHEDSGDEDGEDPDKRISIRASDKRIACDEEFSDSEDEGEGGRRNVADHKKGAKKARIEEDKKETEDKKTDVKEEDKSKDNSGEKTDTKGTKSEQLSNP
T2 sequence (Q13547 whole entry): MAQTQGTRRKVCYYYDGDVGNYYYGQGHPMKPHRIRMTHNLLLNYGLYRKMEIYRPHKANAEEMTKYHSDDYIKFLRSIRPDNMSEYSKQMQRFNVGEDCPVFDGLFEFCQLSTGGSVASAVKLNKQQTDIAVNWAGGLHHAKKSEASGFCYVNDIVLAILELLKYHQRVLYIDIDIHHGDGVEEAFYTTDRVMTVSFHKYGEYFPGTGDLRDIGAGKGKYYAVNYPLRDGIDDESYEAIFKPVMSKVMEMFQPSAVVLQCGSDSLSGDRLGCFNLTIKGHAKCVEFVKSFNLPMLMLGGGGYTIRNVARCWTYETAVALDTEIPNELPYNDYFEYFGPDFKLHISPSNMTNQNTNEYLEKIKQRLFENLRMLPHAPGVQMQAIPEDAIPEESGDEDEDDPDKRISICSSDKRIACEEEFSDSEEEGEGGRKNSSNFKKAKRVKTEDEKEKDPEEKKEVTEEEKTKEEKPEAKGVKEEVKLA

SMILES	HDAC Inhibition HDAC2, percent ([1]; recombinant HDAC2, @ 5 μM) [% @ 5 μM]	HDAC Inhibition HeLa, percent ([2]; @ 1 μM) [% @ 1 μM]	percent HDAC inhibition at the stated concentration ([2]; comparative tables, @ 1 μM) [% @ 1 μM]	IC50 [1] [µM]	melting point	IC50 [3] [µM]	IC50 [4] [µM]	IC50 [2, 7] [µM]	IC50 ([2]; comparative tables, no unit in cell, read-out: HeLa IC50) [µM]	IC50 [5] [µM]	IC50 [6] [µM]	HDAC Inhibition HeLa, percent ([2]; @ 500 nM) [% @ 500 nM]
CN(C)c1ccc(C(=O)NCCC(=O)NO)c2ccccc12 [PX082530, 4-Dimethylamino-napthalene-1-carboxylic acid (2-hydroxycarbamoyl-ethyl)-amide]	18	13	13									
O=C(CCCCCNC(=O)c1ccccc1)NO [PX083449, N-(5-Hydroxycarbamoyl-pentyl)-benzamide]				0.688	102 to 104 °C							
CN(C)c1ccc(C(=O)NCCCCCC(=O)NO)c2ccccc12 [PX089275, 4-Dimethylamino-napthalene-1-carboxylic acid (5-hydroxycarbamoyl-pentyl)-amide]				0.48	135 to 136 °C	0.175	2.3	0.466	0.466			
COc1ccc(C(=O)NCCCCCC(=O)NO)cc1 [PX089276, N-(5-Hydroxycarbamoyl-pentyl)-4-methoxy-benzamide]				0.312	131 to 132 °C	0.25	6.3	0.165				
O=C(/C=C/C=C/c1ccccc1)NC[C@H]1CC[C@H](C(=O)NO)CC1 [PX105552, 4-[((2E)(4E)-5-Phenylpenta-2,4-dienoylamino)methyl] cyclohexanecarboxylic acid hydroxyamide]				0.967	210 to 212 °C		10	0.5		7.9	10	
CC(/C=C/C(=O)NCCCC(=O)NO)=C\c1ccccc1 [PX105554]				31			114	21.9		20		
CN(C)c1ccc(/C=C/C=C/C(=O)NCCCC(=O)NO)cc1 [PX105669]				28								
O=C(CCCCCNC(=O)c1nc2ccccc2[nH]1)NO [PX105824, 1H-Benzimidazole-2-carboxylic acid (5-hydroxycarbamoylpentyl)amide]					201 °C (dec.)	0.069	5.2	0.069				
O=C(CCCCCNC(=O)C(c1ccccc1)c1ccccc1)NO [PX106489, 6-Diphenylacetylamino-hexanoic acid hydroxyamide]					55 to 56 °C	4	60	3.3				
O=C(/C=C/c1cccc(NC(=O)/C=C/c2ccccc2)c1)NO [PX106513, N-Hydroxy-3-[3-(3-phenylacryloylamino)-phenyl]-acrylamide]			43		178 °C	0.438						43
O=C(/C=C/C#Cc1ccccc1)NCCCCCC(=O)NO [PX106525, (E)-5-Phenylpent-2-en-4-ynoic acid (5-hydroxycarbamoylpentyl)amide]					146 to 148 °C	0.037	4.7	0.028		3.6	2.8	
CC(=C\c1ccccc1)/C=C(\C)C(=O)NCCCCCC(=O)NO [PX117738, (2E)(4E)-2,4-Dimethyl-5-phenylpenta-2,4-dienoic acid (5-hydroxycarbamoyl-pentyl)amide]					120 to 122 °C		24	0.131		1.7	3.2	
O=C(CCCCCNC(=O)[C@H](Cc1c[nH]c2ccccc12)NC(=O)CCCc1c[nH]c2ccccc12)NO [PX117767, N-Hydroxy-6-[((2S)-3-(1H-indol-3-yl)-2-{[4-(1H-indol-3-yl)butanoyl]amino}propanoyl)-amino]hexanamide]					94 to 96 °C		15	0.09		3	6.2	
O=C(CCCCCNC(=O)CC/C=C/c1ccccc1)NO [PX117797, (E)-N-[6-(Hydroxyamino)-6-oxohexyl]-5-phenyl-4-pentenamide]					131 to 133 °C		21	0.688		5.6	21	
